According to PubChem BioAssay (NCI):
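96-well plates; 48 h exposure; 5 concentrations. Endpoints by linear interpolation between flanking doses. Not reached: highest tested concentration assigned. GI50 = concentration required for 50% inhibition of growth. Definition used: TGI = concentration required for complete inhibition of growth.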

Tests used:
Assay in all cases: NCI tumour cell line growth inhibition, 48 h
[1] = test system: M19-MEL melanoma
[2] = test system: RXF-631 renal
[3] = test system: DMS 273 small cell lung
[4] = test system: MDA-MB-435
[5] = test system: MDA-MB-231 breast
[6] = test system: MCF7 breast
[7] = test system: SN12K1 renal
[8] = test system: P388/ADR leukemia
[9] = test system: KM20L2 colon
[10] = test system: MDA-N
[11] = test system: HOP-18 NSCLC

| SMILES | TGI [1] [µM] | TGI [2] [µM] | TGI [3] [µM] | GI50 [4] [µM] | TGI [4] [µM] | GI50 [5] [µM] | TGI [5] [µM] | GI50 [6] [µM] | TGI [6] [µM] | TGI [9] [µM] | further results |
| --- | --- | --- | --- | --- | --- | --- | --- | --- | --- | --- | --- |
| CC1CC2(CC[C@@H]1O)OCCO2 (stereo partly specified) | > 100 | > 100 | > 100 |  |  |  |  |  |  |  |  |
| COC(=O)[C@@H]1CCCN1C(=O)[C@@H]1CCCN1C(=O)[C@@H](Cc1c[nH]c2ccccc12)NC(=S)Nc1cc(C(F)(F)F)cc(C(F)(F)F)c1 |  |  |  | 2.44 | 6.8 | 3.01 | 10.8 | 2.61 | > 100 |  |  |
| CCSc1nc(COC(=O)NC)c(COC(=O)NC)n1C | > 79.9 | > 100 | > 100 |  | > 100 |  | > 100 |  | > 100 | > 100 | TGI [7]: > 100 µM; TGI [8]: > 100 µM; TGI [10]: > 100 µM; TGI [11]: > 100 µM |
| COc1ccc2c(c1)C(=O)c1c-2n(CCCN2CCOCC2)c(=O)c2ccccc12 |  |  |  | 4.54 | > 100 | 15.4 | > 100 | 0.291 | 13 |  |  |
| CC(=O)C1=C([O-])C(C)OC1=O.CC(=O)C1=C([O-])C(C)OC1=O.[NH-]C1CCCC[C@H]1[NH-].[Pt+4] (stereo unspecified) | > 100 |  | > 100 |  |  |  |  |  |  | > 100 | GI50 [1]: 56 µM; GI50 [3]: 44.9 µM; GI50 [9]: 66.7 µM |
| Oc1cc(Cl)ccc1Oc1ccc(Cl)cc1Cl |  |  |  | 2.86 | 9.24 | 2.16 | 4.95 | 3.14 | 10.6 |  |  |
| CC(CCCOC(c1ccccc1)(c1ccccc1)c1ccccc1)OC(=O)Nc1cc([N+](=O)[O-])cc([N+](=O)[O-])c1 (stereo unspecified) | > 100 | > 100 | > 100 |  |  |  |  |  |  |  |  |
| COC1CC(n2cnc3c(N)ncnc32)OC1CO (stereo unspecified) | > 100 |  | > 100 |  |  |  |  |  |  | > 100 |  |
| Nc1nc(OCc2ccccc2)nc2[nH]ncc12 |  |  |  | 16.2 | 30.5 | 11.4 | 25.6 | 16.1 | 33.1 |  |  |
| C[C@H](CS(C)(=O)=O)Nc1ncc2cc(Oc3ccc(F)cc3F)c(=O)n(C)c2n1 |  |  |  | > 25 | > 25 | > 25 | > 25 | > 25 | > 25 |  |  |
| CCC1CN2CCc3cc(OC)c(OC)cc3C2CC1CC1c2cc(OC)c(OC)cc2CCN1C(=O)CNC(=O)OC(C)(C)C (stereo unspecified) | 61.2 | > 100 | 37.8 |  |  |  |  |  |  | 90.6 | TGI [11]: 70.7 µM |
| COC(=O)[C@]1(C)CCC[C@@]2(C)C1CCC1=C[C@@]3(C(C)C)CC[C@]12OO3 (stereo partly specified) | 65.7 | 63.8 | 87.2 |  |  |  |  |  |  |  |  |
| CC1=CC(=O)C(C(C)=Nc2ccccc2Cl)C(=O)O1 (stereo unspecified) |  |  |  | > 100 | > 100 | > 100 | > 100 | > 100 | > 100 |  |  |
| Clc1ccc(CN2COc3c(cc(Cl)c4cccnc34)C2)cc1 | 6.06 | 23.1 | 3.53 |  |  |  |  |  |  | 27.5 | TGI [11]: 16.4 µM |
| CC(=O)c1cccc(NCn2nnc3ccccc32)c1 | > 100 |  | > 100 |  |  |  |  |  |  | > 100 | TGI [11]: > 100 µM |
| CCO[C@@H]1C2C=CC(C2)[C@H]1[N+](=O)[O-] (stereo partly specified) | > 100 |  | > 100 |  |  |  |  |  |  | > 100 | TGI [11]: > 100 µM |
| Cc1ncc([N+](=O)[O-])n1CCNC(=O)CCCn1cnc([N+](=O)[O-])n1 |  |  |  |  | > 100 |  | > 100 |  | > 100 |  | TGI [10]: > 100 µM |
| Cc1cccc(C)c1NC(=O)CCCC(=O)C1CCC/C1=N\NC(=O)C(=O)NN (stereo unspecified) |  | > 100 | > 100 |  |  |  |  |  |  | > 100 | TGI [11]: > 100 µM |
| COC(=O)C(=O)C(C(=O)C=C(C)C)C(=O)C(=O)Nc1cccc(C(C)=O)c1 (stereo unspecified) | > 100 | > 100 | > 100 |  |  |  |  |  |  | > 100 | TGI [11]: > 100 µM |
| Cc1c(C)c2ccc(OC/C=C3\CCC(=O)O3)cc2oc1=O |  |  |  | 17.1 | 34.6 | 16 | 30 | 11 | 32.5 |  |  |
| O=c1oc2ccc(Cl)cc2c(=O)n1-c1ccc(I)cc1F |  |  |  | 0.271 | 3.86 | 0.25 | 3.57 | 0.258 | > 23.9 |  |  |
| COc1ccc(COCC(Cn2ccnc2)OCc2ccc(C(=O)O)cc2)cc1 (stereo unspecified) | > 100 | > 100 |  |  |  |  |  |  |  | > 100 |  |
| CC(C)[C@@H](COC(C)(C)C)N=CN1CCc2c([nH]c3ccccc23)C1 |  |  | > 100 |  |  |  |  |  |  | > 100 |  |
| O=c1[nH]cnc2c(C3OC(CO)C(O)C3O)scc12 (stereo unspecified) |  |  |  | > 100 | > 100 | 37.5 | > 100 | 50.1 | > 100 |  |  |
| CC(=O)OC1C2(CC3N4C(=O)C5(CO)SSC4(CC31O)C(=O)N5C)OC(C)C(C)(C)C2=O (stereo unspecified) |  |  |  | 1.94 | 3.75 | < 0.01 | 0.0558 | < 0.0139 | 0.403 |  |  |
| COc1ccccc1-c1c(C)nn2c(NCc3ccccn3)cc(C)nc12 |  |  |  | 23 | > 50 | 34.7 | > 50 | 2.92 | > 50 |  |  |
